From patent US8101774B2, “Ester derivatives and medicinal use thereof” (Japan Tobacco Inc., priority 2004, dated 2012)

Target: T1, Microsomal triglyceride transfer protein (MTP) from human small intestine microsome (Homo sapiens, UniProt P55157)
T1 construct: Human small intestine microsome was dialyzed against 10 mM phosphate buffer; tissue Tissue Transforming Technologies, Inc; host or cells: human small intestine microsome
Experiment: Inhibition test of interliposomal triglyceride (TG) transfer activity by MTP
Type: biochemical
Conditions: purified MTP from human small intestine microsome, 37° C., 1.5 hours
Method: Microsomal triglyceride transfer protein (MTP) from human small intestine microsome (manufactured by Tissue Transforming Technologies, Inc.) was purified in such a way described below. Human small intestine microsome was dialyzed against 10 mM phosphate buffer (300 mL, pH 6.8) twice for about 2 hours and once for further not less than 12 hours, at about 4° C. After dialysis, the mixture was centrifuged at 4° C. and 15,000×g for 5 minutes and then the supernatant was recovered. The previously recovered supernatant was purified by column chromatography on diethylaminoethyl (DEAE) Sepharose using FPLC (Fast Performance Liquid Chromatography) system, and the purified MTP was used for the test as described below.
Small unilamellar-vesicle (SUV) liposome (hereinafter described as donor, containing 0.25% (mol/mol) triolein and 5% (mol/mol) cardiolipin) constituted by triolein labeled with ^14C and non-labeled SUV liposome (hereinafter described as acceptor, containing […] triolein) were prepared in such a way described below.
Firstly, in order to prepare the donor, there were volatilized under a stream of nitrogen gas a phosphatidylcholine solution containing phosphatidylcholine labeled with ^3H, a cardiolipin solution, and a triolein solution containing triolein labeled with ^14C (each solution had been already dissolved in an appropriate organic solvent), or in order to prepare the acceptor, there were volatilized under nitrogen flow a phosphatidylcholine solution containing phosphatidylcholine labeled with ^3H and a cardiolipin solution (each solution had been already dissolved in an appropriate organic solvent). An appropriate amount of a reaction buffer (15 mM Tris-HCl buffer containing 1 mM EDTA.Na2, 40 mM NaCl, and 0.5% (w/v) bovine serum albumin, pH 7.4) was added thereto to be emulsified. The emulsions were treated with ultrasonication under ice-cooling and centrifuged at 4° C. and 159,000×g for 2 hours. Each of the resulting supernatant was used for donor or acceptor.
Each radioactivity in the acceptor and the donor was measured by liquid scintillation counter, and a mixed solution of the acceptor and the donor was prepared with a reaction buffer so as to be a donor-derived radioactivity of 16,000 dpm/400 μL and a acceptor-derived radioactivity of 4,000 dpm/[…]. 400 μL of the mixed solution of the donor and the acceptor, 45 μL of the reaction buffer, 50 μL of MTP (20 μg/mL), and 5 μL of a sample dissolved in DMSO (dimethyl sulfoxide) or 5 μL of DMSO was mixed (total amount: 500 μL). The mixture was incubated at 37° C. for 1.5 hours. After completion of the incubation, 1.25 mL of a suspension of DEAE cellulose (66.7% (v/v)) in 15 mM Tris-HCl buffer (pH 7.4) containing 1 mM EDTA.Na2 was added to the above solution. The mixture was centrifuged to separate the donor (adsorbed on the DEAE cellulose to precipitate) and the acceptor (the supernatant). The radioactivity in the acceptor was measured by liquid scintillation counter. The value obtained by subtracting the radioactivity in a blank group from the radioactivity in the acceptor of a DMSO group was determined as MTP-mediated TG transfer activity, and it was compared with the value obtained by subtracting the radioactivity in the blank group from the radioactivity in a sample group. Here, the blank was prepared by adding 10 mM phosphate buffer (pH 6.8) containing 250 mM NaCl in place of MTP. Inhibition rate (%) was calculated from values obtained according to the following equation. Inhibition rate(%)=(1 minus((radioactivity of sample group minus radioactivity of blank group)/(radioactivity of DMSO group minus radioactivity of blank group)))×100.
50% Inhibition rate (IC50) was determined on the basis of the above equation.

T1 sequence (P55157 19-894): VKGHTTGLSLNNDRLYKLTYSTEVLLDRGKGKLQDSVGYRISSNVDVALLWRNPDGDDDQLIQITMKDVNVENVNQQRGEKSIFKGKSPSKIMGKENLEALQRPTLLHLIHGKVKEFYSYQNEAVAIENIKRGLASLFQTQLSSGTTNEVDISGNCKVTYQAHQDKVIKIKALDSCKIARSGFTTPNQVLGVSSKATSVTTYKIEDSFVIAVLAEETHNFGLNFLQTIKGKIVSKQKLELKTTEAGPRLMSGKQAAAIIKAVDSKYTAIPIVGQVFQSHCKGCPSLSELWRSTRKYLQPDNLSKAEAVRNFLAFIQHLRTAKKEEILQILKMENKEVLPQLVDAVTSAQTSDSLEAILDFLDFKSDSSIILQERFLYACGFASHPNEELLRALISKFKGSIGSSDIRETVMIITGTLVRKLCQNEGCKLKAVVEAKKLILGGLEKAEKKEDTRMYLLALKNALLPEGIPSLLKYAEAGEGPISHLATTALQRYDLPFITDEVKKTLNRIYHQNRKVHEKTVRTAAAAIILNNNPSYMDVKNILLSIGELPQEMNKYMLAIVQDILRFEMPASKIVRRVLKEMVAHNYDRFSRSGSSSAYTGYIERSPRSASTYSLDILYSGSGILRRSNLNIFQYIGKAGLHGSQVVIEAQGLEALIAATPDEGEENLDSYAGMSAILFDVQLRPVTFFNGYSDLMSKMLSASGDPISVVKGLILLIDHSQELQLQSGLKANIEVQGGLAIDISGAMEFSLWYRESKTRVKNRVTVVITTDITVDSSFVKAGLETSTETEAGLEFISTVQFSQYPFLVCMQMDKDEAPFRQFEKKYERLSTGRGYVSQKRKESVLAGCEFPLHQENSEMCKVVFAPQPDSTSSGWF
T1 sequence (P07237 18-508 partner): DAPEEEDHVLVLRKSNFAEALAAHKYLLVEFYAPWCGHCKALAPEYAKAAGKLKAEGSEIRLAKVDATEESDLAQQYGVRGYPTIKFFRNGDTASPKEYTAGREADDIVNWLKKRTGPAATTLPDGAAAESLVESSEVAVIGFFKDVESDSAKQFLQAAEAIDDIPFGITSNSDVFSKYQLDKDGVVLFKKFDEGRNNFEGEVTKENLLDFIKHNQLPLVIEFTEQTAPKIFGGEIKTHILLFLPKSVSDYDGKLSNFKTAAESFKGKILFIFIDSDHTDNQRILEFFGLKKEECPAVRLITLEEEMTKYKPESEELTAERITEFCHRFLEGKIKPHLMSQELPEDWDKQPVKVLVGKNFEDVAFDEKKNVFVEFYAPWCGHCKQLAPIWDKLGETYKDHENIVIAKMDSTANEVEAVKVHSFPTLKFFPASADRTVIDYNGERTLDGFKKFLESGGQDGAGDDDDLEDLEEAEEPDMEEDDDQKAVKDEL

IC50 [nM] | Structure (SMILES)
10 to 100 | COC(=O)c1ccc(OC(=O)CCCc2ccc(NC(=O)c3ccccc3-c3ccc(C(F)(F)F)cc3)c(C(=O)N(C)C)c2)cc1C(F)(F)F [Compound 1-21, 4-(4-{3-dimethylcarbamoyl-4-[(4′-trifluoromethylbiphenyl-2-carbonyl)amino]phenyl}butyryloxy)-2-trifluoromethylbenzoic acid methyl ester]
10 to 100 | CC(=O)c1ccc(OC(=O)CCCc2ccc(NC(=O)c3ccccc3-c3ccc(C(F)(F)F)cc3)c(C(=O)N(C)C)c2)cc1 [Compound 1-22, 4-{3-dimethylcarbamoyl-4-[(4′-trifluoromethylbiphenyl-2-carbonyl)amino]phenyl}butyric acid 4-acetylphenyl ester]
10 to 100 | CN(C)C(=O)c1cc(CCCC(=O)Oc2ccc(C#N)cc2)ccc1NC(=O)c1ccccc1-c1ccc(C(F)(F)F)cc1 [Compound 1-23, 4-{3-dimethylcarbamoyl-4-[(4′-trifluoromethylbiphenyl-2-carbonyl)amino]phenyl}butyric acid 4-cyanophenyl ester]
< 10 | CN(C)C(=O)c1cc(CCCC(=O)Oc2ccc(C(=O)OCc3ccccc3)cc2)ccc1NC(=O)c1ccccc1-c1ccc(C(F)(F)F)cc1 [Compound 1-24, 4-(4-{3-dimethylcarbamoyl-4-[(4′-trifluoromethylbiphenyl-2-carbonyl)amino]phenyl}butyryloxy)benzoic acid benzyl ester]
100 to 1000 | CN(C)C(=O)c1cc(CCCC(=O)Oc2ccc(C(=O)O)cc2)ccc1NC(=O)c1ccccc1-c1ccc(C(F)(F)F)cc1 [Compound 1-25, 4-(4-{3-dimethylcarbamoyl-4-[(4′-trifluoromethylbiphenyl-2-carbonyl)amino]phenyl}butyryloxy) benzoic acid]
10 to 100 | COC(=O)c1ccc(OC(=O)CCCc2ccc(NC(=O)c3ccccc3-c3ccc(C(F)(F)F)cc3)c(C(=O)N3CCOCC3)c2)cc1 [Compound 1-26, 4-(4-{3-(morpholine-4-carbonyl)-4-[(4′-trifluoromethylbiphenyl-2-carbonyl)amino]phenyl}butyryloxy)benzoic acid methyl ester]
10 to 100 | COC(=O)c1ccc(OC(=O)CCc2ccc(NC(=O)c3ccccc3-c3ccc(C(F)(F)F)cc3)c(C(=O)N(C)C)c2)cc1 [Compound 1-27, 4-(3-{3-dimethylcarbamoyl-4-[(4′-trifluoromethylbiphenyl-2-carbonyl)amino]phenyl}propionyloxy)benzoic acid methyl ester]
< 10 | COC(=O)c1ccc(OC(=O)CCCc2ccc(NC(=O)c3cccnc3-c3ccc(C(F)(F)F)cc3)c(C(=O)N(C)C)c2)cc1 [Compound 1-28, 4-[4-(3-dimethylcarbamoyl-4-{[2-(4-trifluoromethylphenyl)pyridine-3-carbonyl]amino}phenyl)butyryloxy]benzoic acid methyl ester]
< 10 | CC(C)OC(=O)c1ccc(OC(=O)CCCc2ccc(NC(=O)c3ccncc3-c3ccc(C(F)(F)F)cc3)c(C(=O)N(C)C)c2)cc1 [Compound 1-29, 4-[4-(3-dimethylcarbamoyl-4-{[3-(4-trifluoromethylphenyl)pyridine-4-carbonyl]amino}phenyl)butyryloxy]benzoic acid isopropyl ester]
10 to 100 | COC(=O)c1ccc(OC(=O)CCCc2ccc(NC(=O)c3ccncc3-c3ccc(C(F)(F)F)cc3)c(C(=O)N(C)C)c2)cc1 [Compound 1-30, 4-[4-(3-dimethylcarbamoyl-4-{[3-(4-trifluoromethylphenyl)pyridine-4-carbonyl]amino}phenyl)butyryloxy]benzoic acid methyl ester]
10 to 100 | CC(C)OC(=O)c1ccc(OC(=O)CCCc2ccc(NC(=O)c3cccnc3-c3ccc(C(F)(F)F)cc3)c(C(=O)N(C)C)c2)cc1 [Compound 1-31, 4-[4-(3-dimethylcarbamoyl-4-{[2-(4-trifluoromethylphenyl)pyridine-3-carbonyl]amino}phenyl)butyryloxy]benzoic acid isopropyl ester]
100 to 1000 | COC(=O)c1ccc(OC(=O)CCCc2ccc(NC(=O)c3ccc(C)nc3-c3ccc(C(F)(F)F)cc3)c(C(=O)N(C)C)c2)cn1 [Compound 1-32, 5-[4-(3-dimethylcarbamoyl-4-{[6-methyl-2-(4-trifluoromethylphenyl)pyridine-3-carbonyl]amino}phenyl)butyryloxy]pyridine-2-carboxylic acid methyl ester]
< 10 | COC(=O)c1ccc(OC(=O)CCCc2ccc(NC(=O)c3ccccc3-c3ccc(C(F)(F)F)cc3)c(C(=O)N(C)C)c2)c(C(=O)OC)c1 [Compound 1-33, 4-(4-{3-dimethylcarbamoyl-4-[(4′-trifluoromethylbiphenyl-2-carbonyl)amino]phenyl}butyryloxy)isophthalic acid dimethyl ester]
< 10 | COC(=O)c1cc(C)c(OC(=O)CCCc2ccc(NC(=O)c3ccccc3-c3ccc(C(F)(F)F)cc3)c(C(=O)N(C)C)c2)c(Cl)c1 [Compound 1-34, 3-chloro-4-(4-{3-dimethylcarbamoyl-4-[(4′-trifluoromethylbiphenyl-2-carbonyl)amino]phenyl}butyryloxy)-5-methylbenzoic acid methyl ester]
< 10 | COC(=O)c1cc(Cl)c(OC(=O)CCCc2ccc(NC(=O)c3ccc(C)nc3-c3ccc(C(F)(F)F)cc3)c(C(=O)N(C)C)c2)c(OC)c1 [Compound 1-36, 3-chloro-4-[4-(3-dimethylcarbamoyl-4-{[6-methyl-2-(4-trifluoromethylphenyl)pyridine-3-carbonyl]amino}phenyl)butyryloxy]-5-methoxybenzoic acid methyl ester]
< 10 | COc1cc(C(=O)OC(C)C)cc(Cl)c1OC(=O)CCCc1ccc(NC(=O)c2ccc(C)nc2-c2ccc(C(F)(F)F)cc2)c(C(=O)N(C)C)c1 [Compound 1-37, 3-chloro-4-[4-(3-dimethylcarbamoyl-4-{[6-methyl-2-(4-trifluoromethylphenyl)pyridine-3-carbonyl]amino}phenyl)butyryloxy]-5-methoxybenzoic acid isopropyl ester]
10 to 100 | COc1cc(C(=O)OC(C)C)cc(F)c1OC(=O)CCCc1ccc(NC(=O)c2ccc(C)nc2-c2ccc(C(F)(F)F)cc2)c(C(=O)N(C)C)c1 [Compound 1-38, 4-[4-(3-dimethylcarbamoyl-4-{[6-methyl-2-(4-trifluoromethylphenyl)pyridine-3-carbonyl]amino}phenyl)butyryloxy]-3-fluoro-5-methoxybenzoic acid isopropyl ester]
< 10 | COC(=O)c1cc(OC)c(OC(=O)CCCc2ccc(NC(=O)c3ccc(C)nc3-c3ccc(C(F)(F)F)cc3)c(C(=O)N(C)C)c2)c(OC)c1 [Compound 1-39, 4-[4-(3-dimethylcarbamoyl-4-{[6-methyl-2-(4-trifluoromethylphenyl)pyridine-3-carbonyl]amino}phenyl)butyryloxy]-3,5-dimethoxybenzoic acid methyl ester]
< 10 | CCOc1cc(C(=O)OC)cc(Cl)c1OC(=O)CCCc1ccc(NC(=O)c2ccc(C)nc2-c2ccc(C(F)(F)F)cc2)c(C(=O)N(C)C)c1 [Compound 1-40, 3-chloro-4-[4-(3-dimethylcarbamoyl-4-{[6-methyl-2-(4-trifluoromethylphenyl)pyridine-3-carbonyl]amino}phenyl)butyryloxy]-5-ethoxybenzoic acid methyl ester]

Structure (SMILES) | IC50 [nM]
COC(=O)c1cc(C)c(OC(=O)CCCc2ccc(NC(=O)c3ccc(C)nc3-c3ccc(C(F)(F)F)cc3)c(C(=O)N(C)C)c2)c(Cl)c1 [Compound 1-35, 3-chloro-4-[4-(3-dimethylcarbamoyl-4-{[6-methyl-2-(4-trifluoromethylphenyl)pyridine-3-carbonyl]amino}phenyl)butyryloxy]-5-methylbenzoic acid methyl ester] | < 10
